Experiment [1] has as its system Rhesus monkey. Description: In vivo displacement of [11C]FMZ from rhesus monkey GABA-A receptor at 0.5 mg/kg, iv after 50 to 90 mins by PET analysis. The note with it: Macaca mulatta. Format: functional, organism-based. A general note: Displacement assays read how much labelled ligand stays bound in the presence of the test substance.
Experiment [2] concerns the target T1, GABA-A receptor; anion channel (Homo sapiens) (UniProt P14867+P47870+P18507+P28472+P48169+Q99928+Q9UN88+P34903+O00591+O14764+Q8N1C3+P18505+P78334+P47869+P31644+Q16445). Description: Negative allosteric modulation of GABA-A receptor (unknown origin) at 3 uM by whole cell patch clamp assay. Background: The patch-clamp technique gives a direct electrical read-out from membranes.

Experiment [3] has as its target T1, GABA-A receptor; anion channel (Homo sapiens). In words: Negative allosteric modulation of GABA-A receptor (unknown origin) at 300 uM by whole cell patch clamp assay.
Experiment [4] addresses GABA-A receptor; anion channel. In words: Displacement of [3H]FMZ from GABA-A receptor in rat brain after 30 mins by autoradiography. Format: tissue-based.
In experiment [5] the test system is Rhesus monkey. In words: In vivo displacement of [11C]FMZ from rhesus monkey GABA-A receptor at 3.5 mg/kg, iv after 50 to 90 mins by PET analysis. The note with it: Macaca mulatta. Type of experiment: functional, organism-based.
Experiment [6] concerns Rhesus monkey. Description: In vivo displacement of [11C]FMZ from rhesus monkey GABA-A receptor at 7 mg/kg, iv after 50 to 90 mins by PET analysis. Format: functional, organism-based. The note with it: Macaca mulatta.
The test system of experiment [7] is Rhesus monkey. Description: In vivo displacement of [11C]FMZ from rhesus monkey GABA-A receptor assessed as late distribution volume ratio to early distribution volume ratio of […] at 3.5 mg/kg, iv by Logan plot analysis (reference value: 115 to 121 %). Type of experiment: functional, Macaca mulatta.
The subject of experiment [8] is Rhesus monkey. Description: In vivo displacement of [11C]FMZ from rhesus monkey GABA-A receptor assessed late distribution volume ratio to early distribution volume ratio of […] at 7 mg/kg, iv by Logan plot analysis (reference value: 115 to 121 %). Format: functional, Macaca mulatta.
Experiment [9] has as its target GABA-A receptor; anion channel (Rattus norvegicus) (UniProt O09028+P15431+P18506+P18508+P19969+P20236+P23574+P23576+P28471+P28473+P30191+P62813+P63079+P63138+Q91ZM7+Q9ES14). The following applies: Brain, 10 uM.
Description: Displacement of [3H]FMZ from GABA-A receptor in rat brain at 10 uM preincubated for 30 mins followed by FMZ addition measured up to 16 mins

The source made the active and inactive calls. The calls are words filed in the database; no cut-off is given here. Where only a bound is given, the exact number is not on record here.

From ChEMBL document CHEMBL4431373, “Investigation of Proposed Activity of Clarithromycin at GABAA Receptors Using [(11)C]Flumazenil PET” (ACS Med Chem Lett, 2016) come the findings set out here.

For the compound `CCOC(=O)c1ncn2c1CN(C)C(=O)c1cc(F)ccc1-2`, in the experiment with Rhesus monkey [1], the result was Active.
With `CC[C@H]1OC(=O)[C@H](C)[C@@H](O[C@H]2C[C@@](C)(OC)[C@@H](O)[C@H](C)O2)[C@H](C)[C@@H](O[C@@H]2O[C@H](C)C[C@H](N(C)C)[C@H]2O)[C@](C)(OC)C[C@@H](C)C(=O)[C@H](C)[C@@H](O)[C@]1(C)O` [CLARITHROMYCIN], the inhibition amounted to 18% in [2] and 45% in experiment [3]. In experiment [4], this compound displayed a Ki of more than 10 µM. In addition, the inhibition entry (in the experiment with Rhesus monkey [5]; in the experiment on Rhesus monkey [6]; in experiment [9]) was “inactive” each time. Moreover, the results for the Activity in the experiment with Rhesus monkey [7] and with Rhesus monkey [8] were 108 - 131% and 89 - 186%, respectively.

For orientation: inhibition means the drop in the measured response relative to a control, in per cent. As usually defined, the Ki is a measure of affinity in units of concentration, obtained from inhibition or displacement.
